Results on seven compounds are retold here after article PMC7948948 (The Journal of Biological Chemistry, 2021).

Converted amounts (≈) assume the structure as drawn. “And” between values parts separate entries of the source, which are not always exact repeats. Identical values can stand only once. “Also recorded” adds a separate entry of the source. Like-named read-outs stand apart in the source and are kept apart here. Some results are limits rather than exact numbers.

The target in data set [1] is T1, Mtb PheRS (Mycobacterium tuberculosis, UniProt P9WFU3). To be noted: for Mode of inhibition with regard to Phe / Mode of inhibition with regard to ATP: Lineweaver-Burk plot; for Mode of inhibition with regard to ATP: no sulfate added.
T1 sequence (P9WFU3 whole entry): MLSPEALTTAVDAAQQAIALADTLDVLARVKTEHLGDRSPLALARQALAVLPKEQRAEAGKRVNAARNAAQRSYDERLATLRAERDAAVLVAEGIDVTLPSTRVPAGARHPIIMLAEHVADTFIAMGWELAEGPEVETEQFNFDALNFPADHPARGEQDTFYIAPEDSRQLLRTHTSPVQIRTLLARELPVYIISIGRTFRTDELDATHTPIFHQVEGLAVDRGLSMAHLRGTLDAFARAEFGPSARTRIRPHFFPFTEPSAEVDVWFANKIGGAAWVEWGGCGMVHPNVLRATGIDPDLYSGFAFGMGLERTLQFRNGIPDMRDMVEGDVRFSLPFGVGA
T1 sequence (P9WFU1 whole entry, further chain): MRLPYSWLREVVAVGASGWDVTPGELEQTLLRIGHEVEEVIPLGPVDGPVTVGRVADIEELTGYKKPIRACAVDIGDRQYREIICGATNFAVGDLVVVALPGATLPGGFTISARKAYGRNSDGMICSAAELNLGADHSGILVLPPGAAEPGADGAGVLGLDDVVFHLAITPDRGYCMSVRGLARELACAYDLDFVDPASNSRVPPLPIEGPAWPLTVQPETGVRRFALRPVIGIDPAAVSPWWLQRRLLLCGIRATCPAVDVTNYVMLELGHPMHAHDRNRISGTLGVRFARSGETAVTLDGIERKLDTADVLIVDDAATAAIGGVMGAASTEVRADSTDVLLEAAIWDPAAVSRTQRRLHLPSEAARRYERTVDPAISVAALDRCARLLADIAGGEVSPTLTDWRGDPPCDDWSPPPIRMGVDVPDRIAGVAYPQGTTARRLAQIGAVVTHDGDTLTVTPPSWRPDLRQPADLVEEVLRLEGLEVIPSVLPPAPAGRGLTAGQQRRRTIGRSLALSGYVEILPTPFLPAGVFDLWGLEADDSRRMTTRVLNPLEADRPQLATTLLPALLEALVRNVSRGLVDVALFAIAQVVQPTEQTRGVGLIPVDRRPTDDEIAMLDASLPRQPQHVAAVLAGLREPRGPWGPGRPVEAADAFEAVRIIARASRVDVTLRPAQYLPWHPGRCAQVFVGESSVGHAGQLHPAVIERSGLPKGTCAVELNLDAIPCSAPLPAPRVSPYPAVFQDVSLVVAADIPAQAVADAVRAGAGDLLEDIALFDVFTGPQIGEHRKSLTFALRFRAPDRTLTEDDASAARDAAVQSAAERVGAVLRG
For data set [2], the target named is T1, Mtb PheRS. To be noted: for Km: read-out: Km, aminoacylation assay.
For data set [3], the target named is T1, Mtb PheRS. Description: ATP consumption assay (Kinase-Glo), Mtb PheRS. In kind it is biochemical.
Data set [4] addresses T1, Mtb PheRS. Description: biochemical. To be noted: read-out: IC50, AMP Glo, Mtb PheRS.
For data set [5], the target named is T1, Mtb PheRS. Description: biochemical. To be noted: read-out: IC50, Malachite Green, Mtb PheRS.
The target of a further data set is T2, hFARS1 (Homo sapiens, UniProt Q9Y285).
T2 sequence (Q9Y285 1-508): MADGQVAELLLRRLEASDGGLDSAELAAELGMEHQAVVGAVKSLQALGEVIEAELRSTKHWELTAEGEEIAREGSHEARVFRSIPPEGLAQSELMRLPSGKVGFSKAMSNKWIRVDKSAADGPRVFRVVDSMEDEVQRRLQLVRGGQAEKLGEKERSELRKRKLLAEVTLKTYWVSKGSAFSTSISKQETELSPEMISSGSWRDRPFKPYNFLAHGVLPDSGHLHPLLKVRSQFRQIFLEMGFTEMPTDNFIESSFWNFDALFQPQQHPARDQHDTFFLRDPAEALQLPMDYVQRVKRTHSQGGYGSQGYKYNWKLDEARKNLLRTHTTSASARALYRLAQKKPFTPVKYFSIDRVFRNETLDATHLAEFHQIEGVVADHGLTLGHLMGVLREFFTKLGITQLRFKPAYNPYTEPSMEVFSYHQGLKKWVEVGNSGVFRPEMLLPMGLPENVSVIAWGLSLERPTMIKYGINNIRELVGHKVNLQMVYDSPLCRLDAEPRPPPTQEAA
T2 sequence (Q9NSD9 1-589 partner): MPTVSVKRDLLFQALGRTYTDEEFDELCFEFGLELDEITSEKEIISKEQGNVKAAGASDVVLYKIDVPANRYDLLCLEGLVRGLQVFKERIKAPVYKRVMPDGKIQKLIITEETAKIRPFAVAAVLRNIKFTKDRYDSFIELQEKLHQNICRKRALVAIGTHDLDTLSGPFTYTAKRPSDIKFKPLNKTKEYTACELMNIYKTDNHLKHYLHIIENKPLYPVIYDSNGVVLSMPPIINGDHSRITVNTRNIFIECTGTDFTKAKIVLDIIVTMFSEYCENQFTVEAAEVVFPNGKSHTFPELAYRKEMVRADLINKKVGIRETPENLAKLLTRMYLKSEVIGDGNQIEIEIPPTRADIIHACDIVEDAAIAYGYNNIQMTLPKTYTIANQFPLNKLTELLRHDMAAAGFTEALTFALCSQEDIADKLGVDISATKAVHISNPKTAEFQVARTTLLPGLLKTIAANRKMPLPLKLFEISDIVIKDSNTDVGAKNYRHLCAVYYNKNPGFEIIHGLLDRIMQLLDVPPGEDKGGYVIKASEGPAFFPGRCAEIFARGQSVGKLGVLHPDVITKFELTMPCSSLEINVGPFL
Description: biochemical. To be noted: for IC50: 50 nM enzyme, 2 μM ATP, 20 μM L-Phe, 1 mg/ml yeast total tRNA, 1 h, read-out: IC50, Kinase Glo, hFARS1.

A further data set concerns the target T3, hFARS2 (Homo sapiens, UniProt O95363).
T3 sequence (O95363 38-451 limits assumed): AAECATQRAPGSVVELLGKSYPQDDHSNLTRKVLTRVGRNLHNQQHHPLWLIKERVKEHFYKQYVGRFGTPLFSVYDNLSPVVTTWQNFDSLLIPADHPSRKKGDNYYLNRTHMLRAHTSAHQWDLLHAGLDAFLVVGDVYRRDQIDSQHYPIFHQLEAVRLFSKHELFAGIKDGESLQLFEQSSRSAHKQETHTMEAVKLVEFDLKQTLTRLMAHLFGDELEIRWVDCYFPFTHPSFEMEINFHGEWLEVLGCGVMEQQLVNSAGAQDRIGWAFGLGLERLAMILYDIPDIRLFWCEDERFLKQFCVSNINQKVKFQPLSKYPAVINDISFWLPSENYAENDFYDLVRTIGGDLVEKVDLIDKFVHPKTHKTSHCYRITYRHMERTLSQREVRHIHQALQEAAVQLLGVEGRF
Description: biochemical. To be noted: for IC50: E. coli total tRNA 0.5 mg/ml, 1 h, read-out: IC50, Kinase Glo, hFARS2.

The test system of another data set is Mtb H37Rv. Description: MIC by microplate alamarBlue assay. In kind it is cell-based, Mycobacterium tuberculosis. The following applies: for MIC: Mycobacterium tuberculosis, H37RV, n = 3, read-out: MIC against Mtb H37Rv.
Data set [6] deals with T1, Mtb PheRS. Description: biochemical.
The subject of a further data set is WT H37Rv. Description: microbe, parasite or virus in culture. In kind it is cell-based. The following applies: Mycobacterium tuberculosis, 264 h, absorbance at 580 nm, 11 days, Gompertz fit.
Data set [7] can be described thus: in vitro. Format: cell-based. The following applies: human. Here is the method:
(§1) HEK293T, Vero E6, and HepG2 cells were cultured in Dulbecco's modified Eagle's medium plus 10% fetal bovine serum and 1% penicillin/streptomycin at 37 °C with 5% CO2. Plates of 96 wells were plated with 100 μl 1 × 10^5 cells/ml per well and incubated for 24 h before adding compound in serial dilutions. After another 48 h, 40 μl reagents of CellTiter-Glo cell viability assay (Promega) was added, and the plates were shaken at 400 rpm for 10 min in the dark. Luminescence was recorded with plate reader. The data were analyzed with GraphPad Prism 9.
(§2) HepG2 (A and B) is an immortal cell line derived from human liver cells. HEK-293T (C and
(§3) D) is a human embryonic kidney 293 cell line. Vero E6 is a cell line derived from African
(§4) green monkey kidney epithelial cells. […]

Data set [8] in a line: in vitro. In kind it is cell-based, human. To be noted: human. Here is the method:
as §1, §2, §3, §4

The test system of a further data set is HEK-293T. Description: in vitro. Format: cell-based, human. The following applies: 48 h. On the procedure: as §1, §2, §3, §4
A short description of data set [9]: Cytotoxicity, CellTiter-Glo, Vero E6. In kind it is cell-based. To be noted: African green monkey, Vero E6 cells. Here is the method:
as §1, §2, §3, §4

Data set [10] can be described thus: in vitro. In kind it is cell-based. Here is the method: as §1
The subject of another data set is luciferase. Description: Counter-screen of Kinase-Glo coupled reaction, Mtb PheRS omitted. In kind it is biochemical. To be noted: concentrations up to 20 μM.
A further data set deals with PPase, PNPase. Description: Counter-screen of PPi production coupled reaction, Mtb PheRS omitted. Format: biochemical. The following applies: concentrations up to 20 μM.
For a further data set, the system named is HepG2. Description: in vitro. In kind it is cell-based. The following applies: human, 48 h. On the procedure: as §1, §2, §3, §4
The target of a further data set is human FAAH. The following applies: cited from earlier work.
Another data set has as its system N[C@@H](Cc1ccccc1)C(=O)O. Description: purified protein, by the assay type.

For the compound `Nc1ncnc2c1ncn2[C@@H]1O[C@H](COP(=O)(O)OP(=O)(O)OP(=O)(O)O)[C@@H](O)[C@H]1O` [ATP], the Michaelis constant (Km) worked out at 162 ± 11.6 µM at Mtb PheRS [1] (read-out: apparent Km, PPi production assay) and 387 ± 279 µM at Mtb PheRS [2]. Also, on Mtb PheRS [2] (substrate of Mtb PheRS), the “kcat, aminoacylation assay” value came out at 0.405 ± 0.417 s⁻¹.

Regarding `O=C(Nc1cccc(S(=O)(=O)NCCc2c[nH]c3ccccc23)c1)Nc1nccs1` [GDI05-001], the IC50 on Mtb PheRS [3] was 1.72 ± 0.13 µM; on Mtb PheRS [4], 0.87 ± 0.06 µM; at Mtb PheRS [5], 0.52 ± 0.06 µM; on hFARS1 it was above 200 µM; at hFARS2 it was 85.4 µM; on Mtb PheRS [6], 1.34 µM. The MIC with Mtb H37Rv stood at 145 µM (≈ 64 µg/mL). In addition, at Mtb PheRS [1], the “Mode of inhibition with regard to Phe” value is recorded as “Phe competitive inhibitors”. The “Mode of inhibition with regard to ATP” value at Mtb PheRS [1] was “noncompetitive”. The compound also showed a Ki at Mtb PheRS [6] (Ki in the Phe-competitive mode) of 0.2 ± 0.01 µM.

Regarding `O=C(Nc1cccnc1)N1CCC(Cc2cccc(Oc3ccc(C(F)(F)F)cn3)c2)CC1` [PF-3845], the half-maximal inhibitory concentration (IC50) is 2.65 ± 0.19 µM at Mtb PheRS [3]; 2.49 ± 0.19 µM on Mtb PheRS [4]; 1.95 ± 0.19 µM on Mtb PheRS [5]; above 200 µM on hFARS1; above 200 µM at hFARS2; 2.4 µM against Mtb PheRS [6]. Further, on hFARS1 (concentrations up to 200 μM), the “Inhibition of human cytoplasmic PheRS” value is “does not inhibit”. Moreover, at hFARS2 (concentrations up to 200 μM), the “Inhibition of human mitochondrial PheRS” value was “does not inhibit”. Moreover, the MIC in the data set on Mtb H37Rv was around 24 µM (≈ 11 µg/mL); in the data set on WT H37Rv it was 220 µM (≈ 100 µg/mL). In the data set on Mtb H37Rv (n = 3), the “MIC against Mtb H37Rv” value was around 23.87 µM (≈ 10.9 µg/mL). In addition, the CC50 in “in vitro [7]” (48 h, CellTiter-Glo, read-out: CC50, HepG2) is 21.7 ± 1.53 µM; in “in vitro [8]” (48 h, CellTiter-Glo, read-out: CC50, HEK-293T) it was 16.9 ± 1.54 µM; in the data set on HEK-293T (CellTiter-Glo, read-out: CC50, HEK-293T), 16.9 µM; in “in vitro [10]” (human, African green monkey), 16.9 to 25.8 µM; in the data set “in vitro [10]” (two human cell lines, preliminary result, read-out: CC50 against human cell lines (range)), 16.9 to 21.7 µM. In [9], this compound had a cytotoxic concentration (CC50) at 48 h of 21.7 µM. In addition, the “Inhibition of luciferase (Kinase-Glo coupled reaction)” value in the data set on luciferase was “did not inhibit”. In the data set on PPase, PNPase, the “Inhibition of PPase and PNPase (PPi production coupled reaction)” value was “did not inhibit”. Further, the “Mode of inhibition with regard to tRNAPhe” value on Mtb PheRS [1] is “uncompetitive inhibitor; also recorded: uncompetitive inhibition mode”. For the same compound, the “Mode of inhibition with regard to ATP in the presence of sulfate” value at Mtb PheRS [1] (5 mM (NH4)2SO4) is recorded as “competitive inhibition mode; also recorded: ATP competitive inhibitor”. Also, the “Mode of inhibition with regard to Phe” value at Mtb PheRS [1] is “Phe competitive inhibitors; also recorded: competitive inhibition mode”. Further, the “Mode of inhibition with regard to ATP” value at Mtb PheRS [1] is “mixed inhibition mode”. For the same compound, the Ki is 1.7 ± 0.11 µM on Mtb PheRS [6] (Ki in the Phe-competitive mode); 1.08 ± 0.245 µM at Mtb PheRS [6] (Ki with regard to ATP when SO4 2- was absent, mixed inhibition mode, no sulfate); ~0.73 µM and 0.73 µM at Mtb PheRS [6] (Ki with regard to ATP, competitive, with sulfate, 5 mM (NH4)2SO4 in the PheRS enzyme reaction).

As to `O=C(Nc1cccnn1)N1CCC(=Cc2cccc(Oc3ccc(C(F)(F)F)cn3)c2)CC1` [PF-04457845], the IC50 against Mtb PheRS [3] was 9.76 ± 0.73 µM; at Mtb PheRS [4] it was 10.1 ± 1.02 µM; at Mtb PheRS [5] it was 11.7 ± 1.43 µM; at hFARS1, above 200 µM; at hFARS2, above 200 µM; on Mtb PheRS [6], 12 µM. The cytotoxic concentration (CC50) at 48 h in the data set “in vitro [7]” (CC50, HepG2) was 25.8 ± 2.88 µM; in the data set “in vitro [8]” (CC50, HEK-293T), 23.6 ± 1.93 µM; in “in vitro [10]” (human), 23.6 to 25.8 µM. The cytotoxic concentration (CC50) with HepG2 was 25.8 µM; in the data set on HEK-293T (human), 23.6 µM; in “in vitro [10]” (human, African green monkey) it was 16.9 to 25.8 µM. In addition, the “kinact/Ki for covalent inhibition of human FAAH” value on human FAAH was 40,300 M^−1s^−1.

For the compound `N[C@@H](Cc1ccccc1)C(=O)O` [Phe, phenylalanine], on Mtb PheRS [2], the Km came out at 68 ± 6.6 µM.

In the case of (Mycobacterium tuberculosis H37Rv), the Michaelis constant (Km) with N[C@@H](Cc1ccccc1)C(=O)O (pH 7.4) turned out to be 18.10 ± 2.44 µM.

Turning to “Mtb PheRS (Mycobacterium tuberculosis H37Rv)”, in the data set with N[C@@H](Cc1ccccc1)C(=O)O, the Michaelis-Menten constant (Km) is 68.0 ± 6.6 µM, the kcat was 1.1 ± 0.0517 s⁻¹ and the specificity constant (kcat/Km) was found to be 16200 M⁻¹ s⁻¹.
